Measured values taken from ChEMBL document CHEMBL2321780, “Fluorinated quinazolinones as potential radiotracers for imaging kinesin spindle protein expression” (2013).
Activity calls are given as the source filed them. No cut-off for these calls is given here.

Tests used:
SK-OV-3 [1] = experiment: Cell cycle arrest in human SKOV3 cells assessed as monoaster phenotype at 100 nM after 22 hrs by confocal microscopic analysis; type: functional, cell-based
MCF7 [2] = experiment: Nonspecific cytotoxicity against human MCF7 cells after 44 hrs by MTT assay; type: functional; conditions: MCF7, 44 h
PC-3 [3] = experiment: Cytotoxicity against human PC3 cells assessed as inhibition of KSP-mediated cell cycle progression after 44 hrs by MTT assay; type: functional; conditions: PC-3, 44 h
DU-145 [4] = experiment: Nonspecific cytotoxicity against human DU145 cells after 44 hrs by MTT assay; type: functional; conditions: DU-145, 44 h
SK-OV-3 [5] = experiment: Nonspecific cytotoxicity against human SKOV3 cells after 44 hrs by MTT assay; type: functional; conditions: SK-OV-3, 44 h
SK-OV-3 [6] = experiment: Cytotoxicity against human SKOV3 cells assessed as inhibition of KSP-mediated cell cycle progression after 44 hrs by MTT assay; type: functional; conditions: SK-OV-3, 44 h
PC-3 [7] = experiment: Nonspecific cytotoxicity against human PC3 cells after 44 hrs by MTT assay; type: functional; conditions: PC-3, 44 h
MCF7 [8] = experiment: Cytotoxicity against human MCF7 cells assessed as inhibition of KSP-mediated cell cycle progression after 44 hrs by MTT assay; type: functional; conditions: MCF7, 44 h
DU-145 [9] = experiment: Cytotoxicity against human DU145 cells assessed as inhibition of KSP-mediated cell cycle progression after 44 hrs by MTT assay; type: functional; conditions: DU-145, 44 h
[10] = target: T1, Kinesin-like protein KIF2C (Homo sapiens) (UniProt Q99661); experiment: Inhibition of MCAK (unknown origin)-mediated ATP hydrolysis assessed as residual activity at 10 uM after 10 to 20 mins by spectrophotometric analysis
T1 sequence (whole entry): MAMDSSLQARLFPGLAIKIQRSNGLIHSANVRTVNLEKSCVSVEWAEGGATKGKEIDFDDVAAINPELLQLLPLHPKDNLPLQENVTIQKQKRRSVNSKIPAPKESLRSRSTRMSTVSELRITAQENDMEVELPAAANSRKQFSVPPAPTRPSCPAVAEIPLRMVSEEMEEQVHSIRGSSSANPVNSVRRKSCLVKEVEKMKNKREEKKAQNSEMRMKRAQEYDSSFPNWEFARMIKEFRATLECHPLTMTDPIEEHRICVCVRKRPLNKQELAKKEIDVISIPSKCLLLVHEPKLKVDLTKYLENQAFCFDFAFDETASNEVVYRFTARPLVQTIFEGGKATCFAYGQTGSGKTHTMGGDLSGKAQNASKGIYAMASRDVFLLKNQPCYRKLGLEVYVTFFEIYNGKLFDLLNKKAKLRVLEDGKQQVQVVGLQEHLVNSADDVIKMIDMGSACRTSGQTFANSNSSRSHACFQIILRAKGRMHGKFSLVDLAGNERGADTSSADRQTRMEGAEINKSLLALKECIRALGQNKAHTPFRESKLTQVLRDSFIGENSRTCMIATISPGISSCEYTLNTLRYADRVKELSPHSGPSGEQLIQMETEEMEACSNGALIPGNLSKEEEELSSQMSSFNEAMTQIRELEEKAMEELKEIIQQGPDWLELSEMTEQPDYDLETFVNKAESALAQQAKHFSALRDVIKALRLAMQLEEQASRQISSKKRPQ

[11] = target: Centromere-associated protein E (Homo sapiens) (UniProt Q02224); experiment: Inhibition of CENP-E (unknown origin)-mediated ATP hydrolysis assessed as residual activity at 10 uM after 10 to 20 mins by spectrophotometric analysis
[12] = target: T2, Kinesin-like protein KIFC3 (Homo sapiens) (UniProt Q9BVG8); experiment: Inhibition of KIFC3 (unknown origin)-mediated ATP hydrolysis assessed as residual activity at 10 uM after 10 to 20 mins by spectrophotometric analysis
T2 sequence (whole entry): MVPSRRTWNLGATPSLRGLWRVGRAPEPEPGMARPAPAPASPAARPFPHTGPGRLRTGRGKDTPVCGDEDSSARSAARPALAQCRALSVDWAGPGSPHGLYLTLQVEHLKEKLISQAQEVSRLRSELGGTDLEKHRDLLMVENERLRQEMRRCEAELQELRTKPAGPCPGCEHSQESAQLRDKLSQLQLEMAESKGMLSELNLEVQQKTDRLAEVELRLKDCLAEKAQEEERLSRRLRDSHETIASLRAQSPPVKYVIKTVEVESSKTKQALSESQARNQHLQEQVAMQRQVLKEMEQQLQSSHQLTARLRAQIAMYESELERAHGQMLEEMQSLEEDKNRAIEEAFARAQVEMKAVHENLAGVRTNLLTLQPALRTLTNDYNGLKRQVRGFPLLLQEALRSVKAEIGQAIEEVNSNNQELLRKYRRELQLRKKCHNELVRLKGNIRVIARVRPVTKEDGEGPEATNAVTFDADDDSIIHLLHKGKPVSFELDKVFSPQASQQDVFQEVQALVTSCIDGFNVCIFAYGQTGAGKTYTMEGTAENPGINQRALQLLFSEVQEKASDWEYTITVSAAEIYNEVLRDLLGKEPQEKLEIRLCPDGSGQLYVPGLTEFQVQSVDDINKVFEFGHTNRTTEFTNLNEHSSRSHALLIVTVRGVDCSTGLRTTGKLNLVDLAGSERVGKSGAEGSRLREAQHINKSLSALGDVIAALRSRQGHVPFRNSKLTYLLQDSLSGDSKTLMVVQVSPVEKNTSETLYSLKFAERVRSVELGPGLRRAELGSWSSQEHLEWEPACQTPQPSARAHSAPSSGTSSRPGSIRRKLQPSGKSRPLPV

[13] = target: T3, Kinesin-1 heavy chain (Homo sapiens) (UniProt P33176); experiment: Inhibition of KNH (unknown origin)-mediated ATP hydrolysis assessed as residual activity at 10 uM after 10 to 20 mins by spectrophotometric analysis
T3 sequence (whole entry): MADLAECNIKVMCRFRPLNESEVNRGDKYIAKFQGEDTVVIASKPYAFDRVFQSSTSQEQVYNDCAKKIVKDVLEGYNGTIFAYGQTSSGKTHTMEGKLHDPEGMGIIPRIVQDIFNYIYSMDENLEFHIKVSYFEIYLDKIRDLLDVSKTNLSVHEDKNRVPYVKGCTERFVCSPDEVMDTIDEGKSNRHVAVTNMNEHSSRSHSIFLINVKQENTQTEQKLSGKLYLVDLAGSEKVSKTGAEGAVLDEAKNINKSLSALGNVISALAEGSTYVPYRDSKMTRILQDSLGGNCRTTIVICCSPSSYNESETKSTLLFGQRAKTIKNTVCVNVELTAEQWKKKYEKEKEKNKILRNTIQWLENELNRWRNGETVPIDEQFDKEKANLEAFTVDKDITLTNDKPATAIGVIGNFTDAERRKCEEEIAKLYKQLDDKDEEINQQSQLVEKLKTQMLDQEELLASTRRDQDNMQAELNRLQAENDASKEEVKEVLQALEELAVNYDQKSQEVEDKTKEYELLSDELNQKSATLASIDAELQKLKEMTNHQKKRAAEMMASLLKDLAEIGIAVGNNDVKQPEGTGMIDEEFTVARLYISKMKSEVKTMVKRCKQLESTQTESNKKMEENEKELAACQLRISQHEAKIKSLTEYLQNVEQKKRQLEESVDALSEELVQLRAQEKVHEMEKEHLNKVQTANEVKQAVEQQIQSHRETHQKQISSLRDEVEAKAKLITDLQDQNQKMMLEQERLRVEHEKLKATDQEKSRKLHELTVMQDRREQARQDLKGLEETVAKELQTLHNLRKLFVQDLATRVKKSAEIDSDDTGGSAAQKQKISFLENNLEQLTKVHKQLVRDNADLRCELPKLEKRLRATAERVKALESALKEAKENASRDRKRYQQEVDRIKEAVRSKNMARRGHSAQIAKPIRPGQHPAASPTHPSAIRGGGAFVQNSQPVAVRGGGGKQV

Chain of Centromere-associated protein E (Homo sapiens) (Q02224 whole entry): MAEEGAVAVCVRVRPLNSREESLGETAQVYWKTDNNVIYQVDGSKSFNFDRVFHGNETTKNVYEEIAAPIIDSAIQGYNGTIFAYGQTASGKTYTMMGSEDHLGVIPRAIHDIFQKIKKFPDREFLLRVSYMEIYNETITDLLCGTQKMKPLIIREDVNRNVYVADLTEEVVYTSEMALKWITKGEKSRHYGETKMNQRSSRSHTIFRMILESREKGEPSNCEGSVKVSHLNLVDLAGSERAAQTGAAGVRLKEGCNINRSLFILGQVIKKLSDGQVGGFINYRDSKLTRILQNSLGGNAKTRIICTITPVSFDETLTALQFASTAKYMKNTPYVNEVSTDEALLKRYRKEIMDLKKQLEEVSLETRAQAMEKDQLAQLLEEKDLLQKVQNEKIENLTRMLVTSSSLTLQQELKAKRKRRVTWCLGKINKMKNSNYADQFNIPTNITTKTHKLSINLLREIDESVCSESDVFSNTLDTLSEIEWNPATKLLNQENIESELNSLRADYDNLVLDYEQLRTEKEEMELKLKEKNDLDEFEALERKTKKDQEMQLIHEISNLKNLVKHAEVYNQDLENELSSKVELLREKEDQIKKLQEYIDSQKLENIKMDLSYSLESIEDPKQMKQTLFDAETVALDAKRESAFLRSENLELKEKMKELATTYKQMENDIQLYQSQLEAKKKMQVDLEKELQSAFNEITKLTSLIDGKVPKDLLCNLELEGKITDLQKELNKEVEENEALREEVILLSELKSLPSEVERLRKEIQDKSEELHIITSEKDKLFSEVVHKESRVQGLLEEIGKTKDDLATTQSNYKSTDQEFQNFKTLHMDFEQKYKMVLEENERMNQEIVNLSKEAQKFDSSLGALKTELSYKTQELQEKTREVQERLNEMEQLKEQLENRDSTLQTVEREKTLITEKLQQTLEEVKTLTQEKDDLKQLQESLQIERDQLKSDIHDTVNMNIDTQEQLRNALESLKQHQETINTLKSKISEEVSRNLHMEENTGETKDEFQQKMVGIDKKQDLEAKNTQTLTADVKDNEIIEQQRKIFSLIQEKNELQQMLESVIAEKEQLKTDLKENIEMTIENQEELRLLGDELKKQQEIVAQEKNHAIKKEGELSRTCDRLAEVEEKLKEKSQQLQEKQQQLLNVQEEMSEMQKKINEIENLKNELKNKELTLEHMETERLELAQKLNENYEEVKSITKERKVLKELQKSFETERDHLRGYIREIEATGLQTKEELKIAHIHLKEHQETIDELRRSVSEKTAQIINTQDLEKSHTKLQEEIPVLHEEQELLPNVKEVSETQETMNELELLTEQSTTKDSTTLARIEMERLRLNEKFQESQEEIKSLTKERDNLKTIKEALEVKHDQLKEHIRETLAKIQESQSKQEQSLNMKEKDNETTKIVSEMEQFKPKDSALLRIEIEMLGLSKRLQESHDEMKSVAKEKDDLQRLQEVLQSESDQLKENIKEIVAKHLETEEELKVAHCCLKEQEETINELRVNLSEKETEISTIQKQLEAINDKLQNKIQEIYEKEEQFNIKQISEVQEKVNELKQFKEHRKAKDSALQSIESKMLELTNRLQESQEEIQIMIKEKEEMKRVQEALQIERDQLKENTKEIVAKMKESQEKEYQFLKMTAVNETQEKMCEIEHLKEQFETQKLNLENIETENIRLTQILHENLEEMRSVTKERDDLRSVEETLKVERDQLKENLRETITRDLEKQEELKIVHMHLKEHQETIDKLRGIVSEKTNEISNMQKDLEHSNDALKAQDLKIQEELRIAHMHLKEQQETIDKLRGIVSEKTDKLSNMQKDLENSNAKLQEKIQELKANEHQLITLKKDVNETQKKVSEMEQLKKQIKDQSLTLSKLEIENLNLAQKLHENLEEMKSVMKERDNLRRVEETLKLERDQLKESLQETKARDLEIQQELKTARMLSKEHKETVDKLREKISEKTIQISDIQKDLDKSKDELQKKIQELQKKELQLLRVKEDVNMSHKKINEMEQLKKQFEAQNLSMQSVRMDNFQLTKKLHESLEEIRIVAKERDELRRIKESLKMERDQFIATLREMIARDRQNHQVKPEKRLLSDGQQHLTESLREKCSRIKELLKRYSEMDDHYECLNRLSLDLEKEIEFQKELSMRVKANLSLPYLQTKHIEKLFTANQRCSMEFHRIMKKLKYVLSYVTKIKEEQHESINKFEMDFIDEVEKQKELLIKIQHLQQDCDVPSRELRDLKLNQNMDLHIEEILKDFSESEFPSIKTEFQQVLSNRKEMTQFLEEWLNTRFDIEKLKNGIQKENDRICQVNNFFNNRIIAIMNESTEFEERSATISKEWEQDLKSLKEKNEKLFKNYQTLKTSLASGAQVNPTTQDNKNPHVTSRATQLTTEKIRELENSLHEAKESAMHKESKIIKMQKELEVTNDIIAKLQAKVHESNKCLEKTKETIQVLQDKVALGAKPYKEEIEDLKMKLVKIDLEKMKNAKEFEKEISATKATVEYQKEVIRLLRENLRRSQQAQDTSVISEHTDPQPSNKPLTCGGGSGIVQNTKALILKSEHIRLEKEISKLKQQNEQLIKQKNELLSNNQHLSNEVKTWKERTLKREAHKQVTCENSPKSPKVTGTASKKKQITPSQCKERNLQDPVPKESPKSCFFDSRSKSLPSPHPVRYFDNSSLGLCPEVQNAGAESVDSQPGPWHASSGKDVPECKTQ

Row | Activity [10] | Activity [11] | Activity [12] | Activity [13] | SMILES | Activity (SK-OV-3 [1]) | GI50 (MCF7 [2]) | GI50 (PC-3 [3]) | GI50 (DU-145 [4]) | GI50 (SK-OV-3 [5]) | GI50 (SK-OV-3 [6]) | GI50 (PC-3 [7]) | GI50 (MCF7 [8]) | GI50 (DU-145 [9])
1 |  |  |  |  | CC(C)[C@H](c1nc2cc(Cl)ccc2c(=O)n1Cc1ccccc1)N(CCCN)C(=O)c1cccc(F)c1 | Active |  |  |  |  |  |  |  | 
2 |  |  |  |  | CC(C)C(c1nc2cc(Cl)ccc2c(=O)n1Cc1ccccc1)N(CCCN)C(=O)c1ccc(F)cc1 (racemic) |  | 2700 nM | 1100 nM | 3100 nM | 4300 nM | 2700 nM | 6300 nM | 4000 nM | 1100 nM
3 |  |  |  |  | CC(C)C(c1nc2cc(Cl)ccc2c(=O)n1Cc1ccccc1)N(CCCN)C(=O)c1ccccc1F (racemic) |  | 1900 nM | 1.9 nM |  | 3100 nM | 35.6 nM | 350 nM | 17.7 nM | 48.5 nM
4 | 97% | 97.7% | 98.3% | 98.5% | CCOC(=O)C1=C(C)NC(=S)N[C@@H]1c1cccc(O)c1 |  |  |  |  |  |  |  |  | 
